What all share (assay type): cell-based
Assay [1] concerns the target Sodium-dependent dopamine transporter (Homo sapiens, UniProt Q01959). Nature of the assay: Inhibition of human DAT expressed in HEK293 cells assessed as reduction in [3H]-DA uptake by micro beta scintillation counting analysis.
For assay [2], the target named is Sodium-dependent noradrenaline transporter (Homo sapiens, UniProt P23975). Nature of the assay: Inhibition of human NET expressed in HEK293 cells assessed as reduction in [3H]-NE uptake by micro beta scintillation counting analysis.
Sequence of Sodium-dependent noradrenaline transporter (P23975 whole entry): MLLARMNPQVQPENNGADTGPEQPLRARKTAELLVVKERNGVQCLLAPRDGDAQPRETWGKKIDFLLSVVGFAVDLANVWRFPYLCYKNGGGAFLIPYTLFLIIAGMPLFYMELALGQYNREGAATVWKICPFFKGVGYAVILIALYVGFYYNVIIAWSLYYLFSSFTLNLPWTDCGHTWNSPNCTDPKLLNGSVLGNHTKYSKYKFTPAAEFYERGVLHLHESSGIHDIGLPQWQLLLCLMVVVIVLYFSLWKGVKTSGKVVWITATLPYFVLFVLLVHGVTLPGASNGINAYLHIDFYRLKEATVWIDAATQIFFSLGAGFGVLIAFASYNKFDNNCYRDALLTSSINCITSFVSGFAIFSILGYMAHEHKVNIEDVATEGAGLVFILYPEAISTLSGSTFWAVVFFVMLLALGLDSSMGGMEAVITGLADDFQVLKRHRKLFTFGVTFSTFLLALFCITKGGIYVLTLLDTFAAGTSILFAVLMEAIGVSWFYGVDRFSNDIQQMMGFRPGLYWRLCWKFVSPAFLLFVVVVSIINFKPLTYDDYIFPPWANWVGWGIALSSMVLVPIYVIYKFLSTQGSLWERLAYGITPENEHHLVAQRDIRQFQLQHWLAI
For assay [3], the target named is Sodium-dependent serotonin transporter (Homo sapiens, UniProt P31645). Nature of the assay: Inhibition of human SERT expressed in HEK293 cells assessed as reduction in [3H]5-HT uptake by micro beta scintillation counting analysis.
Sequence of Sodium-dependent serotonin transporter (P31645 whole entry): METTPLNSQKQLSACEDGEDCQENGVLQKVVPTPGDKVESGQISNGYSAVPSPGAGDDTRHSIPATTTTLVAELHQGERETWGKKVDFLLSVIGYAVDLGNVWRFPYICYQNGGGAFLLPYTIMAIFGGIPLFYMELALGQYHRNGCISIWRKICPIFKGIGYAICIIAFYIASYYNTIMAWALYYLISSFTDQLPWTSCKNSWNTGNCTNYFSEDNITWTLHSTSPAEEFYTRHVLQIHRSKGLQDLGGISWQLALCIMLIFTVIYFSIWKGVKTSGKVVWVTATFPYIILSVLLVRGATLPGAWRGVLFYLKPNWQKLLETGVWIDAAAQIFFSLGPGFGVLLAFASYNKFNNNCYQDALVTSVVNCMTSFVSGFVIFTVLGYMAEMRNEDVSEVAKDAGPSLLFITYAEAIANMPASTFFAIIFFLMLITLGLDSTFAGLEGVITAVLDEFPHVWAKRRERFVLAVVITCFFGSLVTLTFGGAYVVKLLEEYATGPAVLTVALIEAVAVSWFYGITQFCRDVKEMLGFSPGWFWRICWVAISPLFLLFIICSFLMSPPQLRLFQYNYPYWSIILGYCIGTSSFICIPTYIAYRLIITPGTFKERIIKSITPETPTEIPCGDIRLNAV

Consider 27 compounds from ChEMBL document CHEMBL4229444, “Design, synthesis and docking study of 4-arylpiperazine carboxamides as monoamine neurotransmitters reuptake inhibitors” (Bioorg Med Chem, 2018).

Molecules are shown by their SMILES. Where only a bound is given, the exact number is not on record here.

Sequence of Sodium-dependent dopamine transporter (Q01959 whole entry): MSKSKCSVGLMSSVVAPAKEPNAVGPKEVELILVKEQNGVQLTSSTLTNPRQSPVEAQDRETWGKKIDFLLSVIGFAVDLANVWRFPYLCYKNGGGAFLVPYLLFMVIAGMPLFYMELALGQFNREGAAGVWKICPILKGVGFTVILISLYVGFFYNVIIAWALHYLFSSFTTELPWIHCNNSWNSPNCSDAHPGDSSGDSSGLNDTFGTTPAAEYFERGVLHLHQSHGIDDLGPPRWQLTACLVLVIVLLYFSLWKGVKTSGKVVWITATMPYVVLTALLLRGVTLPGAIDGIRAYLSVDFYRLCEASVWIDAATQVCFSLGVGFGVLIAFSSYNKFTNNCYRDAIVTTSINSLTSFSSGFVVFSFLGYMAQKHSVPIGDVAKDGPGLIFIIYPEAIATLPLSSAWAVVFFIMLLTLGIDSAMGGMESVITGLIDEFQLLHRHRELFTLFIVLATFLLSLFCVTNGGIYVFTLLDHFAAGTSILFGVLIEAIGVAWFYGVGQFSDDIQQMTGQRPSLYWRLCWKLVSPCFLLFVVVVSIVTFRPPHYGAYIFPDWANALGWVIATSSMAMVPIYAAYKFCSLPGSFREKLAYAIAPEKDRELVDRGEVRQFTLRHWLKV

As to `O=C(NCCCN1CCN(c2ncccn2)CC1)c1cc(Cl)cc(Cl)c1`, the IC50 in assay [1], in assay [2] and in assay [3] was more than 10 µM in each case.
For the compound `O=C(NCCCN1CCN(c2cccc(Cl)c2Cl)CC1)c1cc2ccccc2s1`, the concentration for half-maximal inhibition (IC50) came to 3.66 µM in assay [2] and 0.4 µM in assay [3].
As to `O=C(NCCCN1CCN(c2ncccn2)CC1)c1ccc2ccccc2n1`, the IC50 in assay [1], in assay [2] and in assay [3] was more than 10 µM throughout.
Consider `O=C(NCCCN1CCN(c2ccccn2)CC1)c1cccc2ccccc12`, for which the 50% inhibitory concentration (IC50) in assay [1], in assay [2] and in assay [3] was more than 10 µM in each case.
For the compound `O=C(NCCCN1CCN(c2ncccn2)CC1)c1cccc2ccccc12`, the IC50 in assay [1], in assay [2] and in assay [3] was more than 10 µM each time.
For `Cc1ccc(N2CCN(CCCNC(=O)c3ccc4ccccc4c3)CC2)cc1`, the IC50 in assay [2] came to 2.69 µM; in assay [3], 0.46 µM.
In the same order, the values of `O=C(NCCCN1CCN(c2ccc(C(F)(F)F)cc2)CC1)c1cc2ccccc2o1` are more than 10 µM and 0.741 µM.
In the same order, the values of `Cc1ccc(N2CCN(CCCNC(=O)c3ccc4ccccc4n3)CC2)cc1` are more than 10 µM and 0.23 µM.
Take `O=C(NCCCN1CCN(c2ccccn2)CC1)c1ccc2ccccc2n1`: the IC50 in assay [1] is more than 10 µM; in assay [2] it was more than 10 µM; in assay [3], 6.94 µM.
Regarding `O=C(NCCCN1CCN(c2cccc(Cl)c2Cl)CC1)c1cc(Cl)cc(Cl)c1`, the IC50 in assay [1], in assay [2] and in assay [3] was more than 10 µM throughout.
Regarding `O=C(NCCCN1CCN(c2ccc(Cl)cc2)CC1)c1ccc2ccccc2c1`, the IC50 in assay [2] is more than 10 µM; in assay [3], 0.28 µM.
Consider `O=C(NCCCN1CCN(c2ccc(Cl)cc2)CC1)c1ccc2ccccc2n1`, for which the half-maximal inhibitory concentration (IC50) is more than 10 µM in assay [2] and 1.32 µM in assay [3].
In the same order, the values of `O=C(NCCCN1CCN(c2ccc(Cl)cc2)CC1)c1cc2ccccc2s1` are 1.34 µM and 0.55 µM.
As to `O=C(NCCCN1CCN(c2ccc(Cl)c(Cl)c2)CC1)c1ccc2ccccc2n1`, the IC50 in assay [2] is more than 10 µM; in assay [3], 0.273 µM.
As to `O=C(NCCCN1CCN(c2ncccn2)CC1)c1ccc2ccccc2c1`, the IC50 in assay [1], in assay [2] and in assay [3] was more than 10 µM throughout.
`O=C(NCCCN1CCN(c2cccc(Cl)c2Cl)CC1)c1ccc2ccccc2c1`: the IC50 was more than 10 µM in assay [1], 0.26 µM in assay [2] and 0.74 µM in assay [3].
Consider `COc1ccccc1N1CCN(CCCNC(=O)c2ccc3ccccc3n2)CC1`, for which the IC50 in assay [2] and in assay [3] was more than 10 µM each time.
For `O=C(NCCCN1CCN(c2cccc(Cl)c2Cl)CC1)c1cccc2ccccc12`, the IC50 in assay [1] was more than 10 µM; in assay [2], more than 10 µM; in assay [3] it was 4.27 µM.
Turning to `O=C(NCCCN1CCN(c2ccccn2)CC1)c1cc(Cl)cc(Cl)c1`, the IC50 in assay [1], in assay [2] and in assay [3] was more than 10 µM throughout.
In the case of `O=C(NCCCN1CCN(c2ccc(Cl)cc2Cl)CC1)c1ccc2ccccc2n1`, the values for the IC50 in assay [2] and in assay [3] were more than 10 µM and 6.85 µM, respectively.
As for `O=C(NCCCN1CCN(c2cccc(Cl)c2Cl)CC1)c1ccc(-c2ccccc2)cc1`, the IC50 in assay [2] is 3.15 µM; in assay [3], 1.01 µM.
In the same order, the values of `O=C(NCCCN1CCN(c2cccc(Cl)c2Cl)CC1)c1cc2ccccc2o1` are more than 10 µM and more than 10 µM.
As to `COc1ccccc1N1CCN(CCCNC(=O)c2ccc(-c3ccccc3)cc2)CC1`, the IC50 in assay [2] worked out at 4.96 µM; in assay [3], 4.46 µM.
Consider `O=C(NCCCN1CCN(c2ccccn2)CC1)c1ccc2ccccc2c1`, for which the figures for the IC50 in assay [1], in assay [2] and in assay [3] were more than 10 µM, more than 10 µM and 9.64 µM, respectively.
As to `O=C(NCCCN1CCN(c2ccccc2)CC1)c1ccc2ccccc2n1`, the IC50 in assay [2] and in assay [3] was more than 10 µM throughout.
Consider `COc1ccc(N2CCN(CCCNC(=O)c3ccc4ccccc4n3)CC2)cc1`, for which the IC50 in assay [2] amounted to 6.07 µM; in assay [3], 0.23 µM.
`O=C(NCCCN1CCN(c2cccc(Cl)c2Cl)CC1)c1ccc2ccccc2n1`: the IC50 in assay [1] is more than 10 µM; in assay [2], 2.55 µM; in assay [3], 1.17 µM.

What is called IC50 is the concentration that gives 50% inhibition.
